According to PMC5007466, “VCP recruitment to mitochondria causes mitophagy impairment and neurodegeneration in models of Huntington's disease” (Nature Communications, 2016):
Peptide text beside a SMILES is read from it. * marks the point of attachment. Cbz = O=C(OCc1ccccc1)*

How the values were obtained:
[1] = test system: HdhQ111 / HdhQ7 mouse striatal cells; assay: Mitochondrial membrane potential (TMRM), mouse striatal cells; format: cell-based; settings: HdhQ111 cells, VCP siRNA, three days
Experimental: (§1) Immortalized striatal cell lines HdhQ111 mutant and HdhQ7 wt cells were obtained from the CHDI Foundation. Cells were cultured in DMEM supplemented with 10% FBS, 100 μg/ml penicillin, 100 μg ml^−1 streptomycin, and 400 μg ml^−1 G418. Cells were grown at 33 °C in a 5% CO2 incubator. Cells within 14 passages were used in all experiments.
(§2) For silencing Htt and VCP in HD striatal cells, control siRNA, mouse Htt and mouse VCP siRNA were purchased from Thermo Fisher Scientific. HdhQ7 and HdhQ111 cells were transfected either with control siRNA, or Htt or VCP siRNA using TransIT-TKO Transfection Reagent (Mirus Bio, LLC), according to the manufacturer's instructions. The sequences for the siRNAs used in this study are as follows: mouse Htt, 5′-[…]-3′; Mouse VCP, 5′-GAGAGCAACCUUCGUAAG-3′; control non-targeting siRNA, 5′-TTCTCCGAACGTGTCACGT-3′.
To determine mitochondrial mass in cultures, cells were stained with antibodies against Tom20 or stained with Mitotracker green. The fluorescent density of Tom20 (1:500) or mitotracker green was quantitated using NIH Image J software. To measure the membrane potential of mitochondria in cultures, cells were incubated with 0.25 μM tetra-methyl rhodamine (Invitrogen Life Science) for 20 min at 37 °C. To determine lysosomal activity, cells were incubated with Lyso-ID Red dye (Enzo Life Science) for 30 min at 37 °C. The images were visualized by microscope and quantitation of the density of red fluorescence was carried out using NIH ImageJ software. For immunocytochemistry study, at least 100 cells per group were counted and quantitated by an observer blind to experimental conditions.

[2] = test system: HdhQ111 mouse striatal cells; assay: Mitochondria-associated LC3 II level; format: cell-based; settings: VCP siRNA, 48 h
Description: as §2
Cells were washed with cold PBS and incubated on ice for 30 min in a lysis buffer (250 mM sucrose, 20 mM HEPES-NaOH, pH 7.5, 10 mM KCl, 1.5 mM MgCl2, 1 mM EDTA, protease inhibitor cocktail and phosphatase inhibitor cocktail). Mouse brains were minced and homogenized in the lysis buffer and then placed on ice for 30 min. Collected cells or tissue were disrupted 20 times by repeated aspiration through a 25-gauge needle, followed by a 30-gauge needle. The homogenates were spun at 800 g for 10 min at 4 °C, and the resulting supernatants were spun at 10,000 g for 20 min at 4 °C. The pellets were washed with lysis buffer and spun at 10,000 g again for 20 min at 4 °C. The final pellets were suspended in lysis buffer containing 1% Triton X-100 and were mitochondrial-rich lysate fractions. […]
(§3) Protein concentrations were determined by Bradford assay. […]

[3] = test system: HdhQ111 / HdhQ7 mouse striatal cells; assay: VCP mitochondrial level, mouse striatal cells (western blot); format: cell-based; settings: HdhQ111 cells, Htt siRNA, 3 days
Experimental: as §1, §2
Cells were washed with cold PBS and incubated on ice for 30 min in a lysis buffer (250 mM sucrose, 20 mM HEPES-NaOH, pH 7.5, 10 mM KCl, 1.5 mM MgCl2, 1 mM EDTA, protease inhibitor cocktail and phosphatase inhibitor cocktail). Mouse brains were minced and homogenized in the lysis buffer and then placed on ice for 30 min. Collected cells or tissue were disrupted 20 times by repeated aspiration through a 25-gauge needle, followed by a 30-gauge needle. The homogenates were spun at 800 g for 10 min at 4 °C, and the resulting supernatants were spun at 10,000 g for 20 min at 4 °C. The pellets were washed with lysis buffer and spun at 10,000 g again for 20 min at 4 °C. The final pellets were suspended in lysis buffer containing 1% Triton X-100 and were mitochondrial-rich lysate fractions. The supernatant was centrifuged at 100,000 g, 4 °C, for 1 h, the pellets were suspended in lysis buffer containing 1% Triton X-100 as ER fractions. The final supernatant was cytosolic fractions. The mitochondrial proteins VDAC, the ER protein WFS1 and the cytosolic protein Enolase were used as loading controls for mitochondrial, ER and cytosolic fractions, respectively.
as §3

[4] = test system: Htt or mtHtt protein in HdhQ7 and HdhQ111 cells; assay: Htt/mtHtt protein level (western blot); format: cell-based, mouse; settings: 16 h, n = 3
Experimental: Protein concentrations were determined by Bradford assay. Protein was resuspended in Laemmli buffer, loaded on SDS–PAGE, and transferred onto nitrocellulose membranes. Membranes were probed with the indicated antibodies, followed by visualization with ECL. Representative blots have been cropped for presentation. Images of full-size blots are presented in Supplementary Fig. 9.
Supplementary Figure 3: Htt and mtHtt are not substrates of VCP . Left: HdhQ7 and HdhQ111 cells were treated with MG132 (10 µM for 16 hours). Protein levels of Htt were determined in the total lysates of the cells. Actin was used as a loading control. The representative blots were from three independent experiments. Right: HdhQ7 and HdhQ111 were treated with Eer I (Eeyarestatin I, 5μ M for 16 hours). Protein levels of Htt were determined. Mcl-1, a mitochondrial Bcl-2 family protein, was used as a positive control. Mcl-1 has been reported to be a substrate of VCP on mitochondria and it is degraded via the ubiquitin-proteasome system. The representative blots were from three independent […]
(1 picture or pasted object on this page, not shown here)

VCP = settings: cited from earlier work
Description: We next ask what specific function VCP mediates on mitochondria from HD models. VCP knock-out is lethal in mice[34].

Compound: 5′-GAGAGCAACCUUCGUAAG-3′ [VCP siRNA, reference compound]
- mitochondrial membrane potential [1]: similarly promoted the MMP
- mitochondria-associated LC3 II [2]: reduced the levels of mitochondria-associated LC3 II

Compound: 5′-GGUUUAUGAACUGACUUUGTT-3′ [Htt siRNA, reference compound]
- VCP translocation to mitochondria [3]: abolished VCP translocation to mitochondria

Compound: CC1(C)C(N(O)C(=O)Nc2ccc(Cl)cc2)N(c2ccc(Cl)cc2)C(=O)N1CC(=O)N/N=C/C=C/c1ccc([N+](=O)[O-])o1 (stereo not drawn) [Eeyarestatin I]
- Htt or mtHtt protein levels ([4]; Eeyarestatin I 5 μM): did not affect Htt or mtHtt protein levels
- cell death (VCP): rapidly lead to cell death
- specificity (VCP): non-specific

Compound: CC(C)C[C@@H](C=O)NC(=O)[C@H](CC(C)C)NC(=O)[C@H](CC(C)C)NC(=O)OCc1ccccc1 [MG132] (Cbz-Leu-Leu-Leu-aldehyde)
- Htt or mtHtt protein levels ([4]; MG132 10 µM): did not affect Htt or mtHtt protein levels

Compound: c1ccc(CNc2nc(NCc3ccccc3)c3ccccc3n2)cc1 [N2,N4-dibenzylquinazoline-2,4-diamine]
- cell death (VCP): rapidly lead to cell death
- specificity (VCP): non-specific
